Source: the NIST ThermoML archive (doi:10.1021/je100832h)
± gives the expanded uncertainty stated by the source.

Assays:
[1] = xn = mol fraction of the nth substance listed; conditions: 101.32 kPa, Liquid, Vibrating tube method
[2] = excess molar enthalpy (molar enthalpy of mixing); xn = mol fraction of the nth substance listed; conditions: 101 kPa, Liquid, Calvet calorimetry

CCCCCCCCCC [decane] + CCOC(C)=O
Conditions | excess molar enthalpy [kcal/mol] | mass density [kg/m3]
[1], 291.15 K, x2 = 0 | – | 731.22 ± 0.57
[1], 291.15 K, x2 = 0.0174 | – | 732.37 ± 0.64
[1], 291.15 K, x2 = 0.0789 | – | 736.87 ± 0.65
[1], 291.15 K, x2 = 0.1457 | – | 742.14 ± 0.67
[1], 291.15 K, x2 = 0.2494 | – | 751.47 ± 0.7
[1], 291.15 K, x2 = 0.3508 | – | 762.27 ± 0.75
[1], 291.15 K, x2 = 0.4382 | – | 773.02 ± 0.8
[1], 291.15 K, x2 = 0.5149 | – | 783.83 ± 0.85
[1], 291.15 K, x2 = 0.5781 | – | 793.79 ± 0.91
[1], 291.15 K, x2 = 0.6446 | – | 805.51 ± 0.98
[1], 291.15 K, x2 = 0.7051 | – | 817.52 ± 1.1
[1], 291.15 K, x2 = 0.7648 | – | 830.7 ± 1.1
[1], 291.15 K, x2 = 0.8069 | – | 841.06 ± 1.2
[1], 291.15 K, x2 = 0.8553 | – | 854.05 ± 1.3
[1], 291.15 K, x2 = 0.8914 | – | 864.68 ± 1.4
[1], 291.15 K, x2 = 0.9318 | – | 877.69 ± 1.5
[1], 291.15 K, x2 = 0.9794 | – | 894.7 ± 1.6
[1], 298.15 K, x2 = 0 | – | 726.2 ± 0.56
[1], 298.15 K, x2 = 0.0319 | – | 728.3 ± 0.64
[1], 298.15 K, x2 = 0.1165 | – | 734.6 ± 0.65
[1], 298.15 K, x2 = 0.2048 | – | 741.9 ± 0.67
[1], 298.15 K, x2 = 0.2835 | – | 749.3 ± 0.71
[1], 298.15 K, x2 = 0.3475 | – | 756.1 ± 0.74
[1], 298.15 K, x2 = 0.4252 | – | 765.35 ± 0.78
[1], 298.15 K, x2 = 0.4873 | – | 773.59 ± 0.82
[1], 298.15 K, x2 = 0.5417 | – | 781.58 ± 0.87
[1], 298.15 K, x2 = 0.6031 | – | 791.53 ± 0.92
[1], 298.15 K, x2 = 0.6469 | – | 799.34 ± 0.98
[1], 298.15 K, x2 = 0.6957 | – | 808.8 ± 1
[1], 298.15 K, x2 = 0.7407 | – | 818.3 ± 1.1
[1], 298.15 K, x2 = 0.78 | – | 827.2 ± 1.1
[1], 298.15 K, x2 = 0.8179 | – | 836.5 ± 1.2
[1], 298.15 K, x2 = 0.8516 | – | 845.4 ± 1.3
[1], 298.15 K, x2 = 0.8865 | – | 855.4 ± 1.4
[1], 298.15 K, x2 = 0.9207 | – | 866.1 ± 1.5
[1], 298.15 K, x2 = 0.9604 | – | 879.5 ± 1.6
[1], 318.15 K, x2 = 0 | – | 710.9 ± 0.55
[1], 318.15 K, x2 = 0.0117 | – | 711.52 ± 0.59
[1], 318.15 K, x2 = 0.0758 | – | 715.68 ± 0.62
[1], 318.15 K, x2 = 0.1539 | – | 721.34 ± 0.64
[1], 318.15 K, x2 = 0.2456 | – | 728.94 ± 0.66
[1], 318.15 K, x2 = 0.2848 | – | 732.56 ± 0.69
[1], 318.15 K, x2 = 0.3468 | – | 738.71 ± 0.7
[1], 318.15 K, x2 = 0.3714 | – | 741.31 ± 0.73
[1], 318.15 K, x2 = 0.4391 | – | 749.04 ± 0.76
[1], 318.15 K, x2 = 0.516 | – | 758.96 ± 0.78
[1], 318.15 K, x2 = 0.5314 | – | 761.13 ± 0.84
[1], 318.15 K, x2 = 0.5878 | – | 769.54 ± 0.87
[1], 318.15 K, x2 = 0.6448 | – | 778.92 ± 0.92
[1], 318.15 K, x2 = 0.694 | – | 787.77 ± 0.96
[1], 318.15 K, x2 = 0.7127 | – | 791.38 ± 1
[1], 318.15 K, x2 = 0.7829 | – | 806.2 ± 1.1
[1], 318.15 K, x2 = 0.8204 | – | 815 ± 1.2
[1], 318.15 K, x2 = 0.8538 | – | 823.5 ± 1.2
[1], 318.15 K, x2 = 0.8886 | – | 833 ± 1.3
[1], 318.15 K, x2 = 0.9198 | – | 842.3 ± 1.4
[1], 318.15 K, x2 = 0.9553 | – | 853.8 ± 1.5
[1], 328.15 K, x2 = 0 | – | 703.34 ± 0.55
[1], 328.15 K, x2 = 0.0347 | – | 705.37 ± 0.61
[1], 328.15 K, x2 = 0.1351 | – | 711.99 ± 0.62
[1], 328.15 K, x2 = 0.234 | – | 719.58 ± 0.65
[1], 328.15 K, x2 = 0.3322 | – | 728.47 ± 0.69
[1], 328.15 K, x2 = 0.4166 | – | 737.37 ± 0.73
[1], 328.15 K, x2 = 0.4853 | – | 745.64 ± 0.77
[1], 328.15 K, x2 = 0.5551 | – | 755.09 ± 0.82
[1], 328.15 K, x2 = 0.6186 | – | 764.72 ± 0.87
[1], 328.15 K, x2 = 0.6774 | – | 774.65 ± 0.93
[1], 328.15 K, x2 = 0.7271 | – | 783.92 ± 0.99
[1], 328.15 K, x2 = 0.7735 | – | 793.4 ± 1.1
[1], 328.15 K, x2 = 0.8619 | – | 814.12 ± 1.2
[1], 328.15 K, x2 = 0.9041 | – | 825.66 ± 1.3
[1], 328.15 K, x2 = 0.9511 | – | 840.13 ± 1.5
[2], 291.15 K, x2 = 0.0986 | 0.146 ± 0.00311 | –
[2], 291.15 K, x2 = 0.1909 | 0.246 ± 0.00526 | –
[2], 291.15 K, x2 = 0.2646 | 0.318 ± 0.00669 | –
[2], 291.15 K, x2 = 0.3377 | 0.372 ± 0.00789 | –
[2], 291.15 K, x2 = 0.4032 | 0.404 ± 0.0086 | –
[2], 291.15 K, x2 = 0.4608 | 0.422 ± 0.00908 | –
[2], 291.15 K, x2 = 0.5067 | 0.429 ± 0.00908 | –
[2], 291.15 K, x2 = 0.5523 | 0.433 ± 0.00932 | –
[2], 291.15 K, x2 = 0.5924 | 0.428 ± 0.00908 | –
[2], 291.15 K, x2 = 0.6147 | 0.421 ± 0.00908 | –
[2], 291.15 K, x2 = 0.6541 | 0.409 ± 0.00884 | –
[2], 291.15 K, x2 = 0.7009 | 0.389 ± 0.00837 | –
[2], 291.15 K, x2 = 0.7512 | 0.357 ± 0.00765 | –
[2], 291.15 K, x2 = 0.7956 | 0.317 ± 0.00669 | –
[2], 291.15 K, x2 = 0.8448 | 0.268 ± 0.00574 | –
[2], 291.15 K, x2 = 0.8927 | 0.208 ± 0.00454 | –
[2], 291.15 K, x2 = 0.9375 | 0.14 ± 0.00311 | –
[2], 291.15 K, x2 = 0.9684 | 0.0715 ± 0.00191 | –
[2], 298.15 K, x2 = 0.0884 | 0.119 ± 0.00263 | –
[2], 298.15 K, x2 = 0.177 | 0.216 ± 0.00454 | –
[2], 298.15 K, x2 = 0.2587 | 0.289 ± 0.00621 | –
[2], 298.15 K, x2 = 0.3362 | 0.345 ± 0.00741 | –
[2], 298.15 K, x2 = 0.4005 | 0.377 ± 0.00813 | –
[2], 298.15 K, x2 = 0.4566 | 0.398 ± 0.0086 | –
[2], 298.15 K, x2 = 0.5101 | 0.408 ± 0.00884 | –
[2], 298.15 K, x2 = 0.5578 | 0.408 ± 0.0086 | –
[2], 298.15 K, x2 = 0.5984 | 0.402 ± 0.0086 | –
[2], 298.15 K, x2 = 0.6297 | 0.395 ± 0.00837 | –
[2], 298.15 K, x2 = 0.6727 | 0.381 ± 0.00813 | –
[2], 298.15 K, x2 = 0.7191 | 0.357 ± 0.00765 | –
[2], 298.15 K, x2 = 0.7636 | 0.329 ± 0.00693 | –
[2], 298.15 K, x2 = 0.8098 | 0.289 ± 0.00621 | –
[2], 298.15 K, x2 = 0.8591 | 0.24 ± 0.00526 | –
[2], 298.15 K, x2 = 0.9024 | 0.185 ± 0.00406 | –
[2], 298.15 K, x2 = 0.9385 | 0.124 ± 0.00287 | –
[2], 298.15 K, x2 = 0.9744 | 0.0595 ± 0.00143 | –
[2], 318.15 K, x2 = 0.0892 | 0.136 ± 0.00287 | –
[2], 318.15 K, x2 = 0.172 | 0.226 ± 0.00478 | –
[2], 318.15 K, x2 = 0.2474 | 0.3 ± 0.00645 | –
[2], 318.15 K, x2 = 0.3208 | 0.354 ± 0.00765 | –
[2], 318.15 K, x2 = 0.3848 | 0.388 ± 0.00837 | –
[2], 318.15 K, x2 = 0.4412 | 0.409 ± 0.00884 | –
[2], 318.15 K, x2 = 0.4941 | 0.42 ± 0.00884 | –
[2], 318.15 K, x2 = 0.5409 | 0.421 ± 0.00908 | –
[2], 318.15 K, x2 = 0.5801 | 0.417 ± 0.00884 | –
[2], 318.15 K, x2 = 0.5985 | 0.412 ± 0.00884 | –
[2], 318.15 K, x2 = 0.6567 | 0.391 ± 0.00837 | –
[2], 318.15 K, x2 = 0.6942 | 0.374 ± 0.00789 | –
[2], 318.15 K, x2 = 0.7429 | 0.344 ± 0.00741 | –
[2], 318.15 K, x2 = 0.7959 | 0.303 ± 0.00645 | –
[2], 318.15 K, x2 = 0.8499 | 0.249 ± 0.00526 | –
[2], 318.15 K, x2 = 0.9018 | 0.179 ± 0.00382 | –
[2], 318.15 K, x2 = 0.9554 | 0.0973 ± 0.00215 | –
